Reference: patent US20240110004A1 (Northwestern University, priority 2022, published 2024)
Where no end group is shown, it is not given here.

Columns and labels:
HdhQ111 cells = assay: Cell viability (cell rescue) of serum-starved HdhQ111 cells; format: cell-based, mouse; details: 3 μM with respect to peptide, once a day for 3 days; compared to the vehicle control
Protocol: FIG. 3A: Cell viability of HV3-TAT peptide and PLPs. Compounds treated to the HdhQ111 cells once a day for 3 days. Concentration was 3 μM with respect to peptide. FIG. 3B: VCP binding assay results for HV3-TAT, P1, P2, and P4.
Cell Viability Methods: In vitro assays were carried out to examine the bioactivity of the PLPs, P1, P2, P3, and P4 and to compare against the known, active HV3-TAT. […] HdhQ111 cells were immortalized from knock-in mice carrying 111 CAG repeats in the mouse Htt gene.
To verify that the PLPs retain bioactivity after being exposed to enzymes or serum treatments, the viability of HD mouse mutant striatal HdhQ111 cells was assessed following treatment with HV3-TAT and P1. […] Cells were maintained at 33° C. and 5% CO2 with a relative humidity of 95%. HdQ111 cells were plated in 96-well plates at a density of 5000 per well and then left to attach for 24 h. Cells were treated with HV3-TAT or PLPs at 3 μM with respect to peptide once a day, for 3 days. The medium was replaced every day. After 72 h, cells were washed 3 times with PBS buffer. At this point, 20 μL of CTB reagent in 80 uL of medium was added, and the cells incubated for 3 hours at 37° C. Fluorescence was measured at 590 nm with excitation at 560 nm using a Perkin Elmer EnSpire plate reader. The average background fluorescence of CTB in media without cells was subtracted from the average fluorescence readings of the experimental wells. Viability was calculated as the average background-subtracted signal in a well compared to that of a negative control well (treatment with vehicle or media). Three replicates were performed for each independent sample. 10% DMSO was used as a positive control and untreated cells in complete medium as a negative control. Viability is reported as a percentage of untreated cells.

R6/2 mice = assay: In vivo efficacy in R6/2 Huntington's disease mice, behavioral analysis, body weight, survival; set-up: species or system mouse; details: for open field horizontal activity / open field total distance / open field vertical activity: 13 weeks; for survival: over the saline control; for average percent of body weight gain: week 13
Description: FIG. 31A-31F: For each of FIG. 31A-31F, data is shown reflecting the results of 3 separate studies (i.e., “Batch 1+2+3”) conducted under identical conditions; “veh” refers to the vehicle saline control. For each of FIG. 31A-31C at week 6, WT: n=15; WT+P1: n=15; R62 veh: n=22; R62+HV3-TAT: n=32; and R62+P1: n=16. For each of FIG. 31D-31F at week 6, WT: n=15; WT+P1: n=15; R62 veh: n=17; R62+HV3-TAT: n=30; and R62+P1: n=13. FIG. 31A depicts the average percent of body weight gain for mice subjected to each treatment. From top to bottom, the week 13 data points correspond to: WT+P1 (˜43%); WT (˜39%); R62+P1 (˜1%); R62+HV3-TAT (˜ […]); and R62 (˜-9%). FIG. 31B depicts the survival rate for each treatment group over time. 100% survival rate for WT veh and WT+P1. R62+P1 as compared to R62 veh: p-value=0.0454; R62+HV3-TAT as compared to R62 veh: p-value=0.0201. FIG. 31C depicts the average hindlimb clasping score for each treatment group at weeks 11, 12, and 13. For each week: R62 mice treated with vehicle (left), R62 treated with HV3-TAT (middle), and R62 treated with P1 (right). p-values in week 11: 0.0145 (top—R62 veh as compared to R62+P1), 0.0432 (middle—R62 veh as compared to R62+HV3-TAT), and 0.6051 (bottom—R62+HV3-TAT as compared to R62+P1); week 12: 0.0037 (top—R62 veh as compared to R62+P1), 0.0263 (middle—R62 veh as compared to R62+HV3-TAT), and 0.3957 (bottom—R62+HV3-TAT as compared to R62+P1); week 13: 0.0031 (top—R62 veh as compared to R62+P1), 0.0177 (middle—R62 veh as compared to R62+HV3-TAT), and 0.4938 (bottom—R62+HV3-TAT as compared to R62+P1). FIG. 31D depicts results from the open field tests representing the total distance traveled at final data collection. p-value for: WT veh as compared to R62 veh: <0.0001; WT+P1 as compared to R62 veh: <0.0001; R62 veh as compared to R62+HV3-TAT: 0.0021; R62 veh as compared to R62+P1: <0.0001; R62+HV3-TAT as compared to R62+P1: 0.1486. FIG. 31E depicts results from the horizontal activity tests. p-value for: WT veh as compared to R62 veh: <0.0001; WT+P1 as compared to R62 veh: <0.0001; R62 veh as compared to R62+HV3-TAT: 0.0262; R62 veh as compared to R62+P1: <0.0001; R62+HV3-TAT as compared to R62+P1: 0.0083. FIG. 31F depicts results from the vertical activity tests. P-value for: WT veh as compared to R62 veh: 0.0004; WT+P1 as compared to R62 veh: <0.0001; R62 veh as compared to R62+HV3-TAT: 0.2879; R62 veh as compared to R62+P1: 0.0375; R62+HV3-TAT as compared to R62+P1: 0.6222.
In vivo Efficacy Methods—Behavioral Analysis: All experiments in animals were conducted in accordance with protocols approved by the Institutional Animal Care and Use Committee of Northwestern University and were performed based on the National Institutes of Health Guide for the Care and Use of Laboratory Animals. HV3-TAT at its operating dose, saline (negative control), and P1 at a dose of […] (3 mg/kg/day with respect to peptide) were administered to Huntington's phenotype R6/2 (sometimes referred to herein as R62) mice and WT mice via Alzet osmotic pump from 6 to 13 weeks of age. The accepted HD phenotype is a decrease in motor coordination, general motility and body weight in male mice as they age from 5 to 13 weeks. A key phenotype of R6/2 mice is hindlimb clasping. Accordingly, hindlimb clasping was assessed with the tail suspension test weekly from the ages 7 to 13 weeks in R6/2 mice and WT littermates. Mice were suspended by the tail for 60 sec and the latency for the hindlimbs or all four paws to clasp was recorded using the following score system: clasping over 10 sec, score 3; 5-10 sec, score 2; 0-5 sec, score 1; 0 sec, score 0. The body weight and survival rate of HD mice and WT littermates were also recorded throughout the study period. For open field motor activity, gross locomotor activity was assessed in R6/2 mice and age-matched WT littermates at the ages of 13 weeks. […]

Row | Substance | cell viability (HdhQ111 cells) | open field horizontal activity (R6/2 mice) | open field total distance (R6/2 mice) | open field vertical activity (R6/2 mice) | survival (R6/2 mice) | average percent of body weight gain (R6/2 mice) | hindlimb clasping (R6/2 mice; tail suspension test, weekly)
1 | P1: PLP homopolymer having peptide side chains of SEQ ID: 1 (HVLVMSATRR), made by ROMP of norbornene peptide monomer M1 (also: side chains of polynorbornene homopolymer (PLP, ROMP of norbornene peptide monomer)) | higher significance than P3 | improved | improved | improved | significantly extending survival | ~1% | 
2 | peptide sequence HVLVMCAT (HV3) coupled to the cell penetrating, HIV-derived TAT peptide [HV3-TAT, reference compound] | significant increases in cell viability | improved | improved | improved | significantly extending survival | ~4% | longer clasping time than P1 treated mice
